# Experiments:
# [1] = target: 5-hydroxytryptamine receptor 1D (Homo sapiens) (UniProt P28221); details: Compound concentration 10.0 uM
# [2] = target: Serine/threonine-protein kinase pim-2 (Homo sapiens) (UniProt Q9P1W9); details: Compound concentration 1000.0 nM
# [3] = target: Serine/threonine-protein kinase DCLK1 (Homo sapiens) (UniProt O15075); details: Compound concentration 1000.0 nM
# [4] = target: Mast/stem cell growth factor receptor Kit (Homo sapiens) (UniProt P10721); details: Compound concentration 1000.0 nM
# [5] = target: RAC-beta serine/threonine-protein kinase (Homo sapiens) (UniProt P31751); details: Compound concentration 1000.0 nM
# [6] = target: Cyclin-dependent kinase 4 (Homo sapiens) (UniProt P11802); details: Compound concentration 1000.0 nM
# [7] = system: Tyrosine-protein kinase ABL1 (Homo sapiens), P00519 [Q252H]; details: Compound concentration 1000.0 nM
# [8] = system: Proto-oncogene tyrosine-protein kinase receptor Ret (Homo sapiens), P07949 [V804L]; details: Compound concentration 1000.0 nM
# [9] = target: NUAK family SNF1-like kinase 1 (Homo sapiens) (UniProt O60285); details: Compound concentration 1000.0 nM
# [10] = system: Phosphatidylinositol 4,5-bisphosphate 3-kinase catalytic subunit alpha isoform (Homo sapiens), P42336 [M1043I]; details: Compound concentration 1000.0 nM
# [11] = target: 5'-AMP-activated protein kinase catalytic subunit alpha-1 (Homo sapiens) (UniProt Q13131); details: Compound concentration 1000.0 nM
# [12] = target: TRAF2 and NCK-interacting protein kinase (Homo sapiens) (UniProt Q9UKE5); details: Compound concentration 1000.0 nM
# [13] = target: Activated CDC42 kinase 1 (Homo sapiens) (UniProt Q07912); details: Compound concentration 1000.0 nM
# [14] = target: Angiopoietin-1 receptor (Homo sapiens) (UniProt Q02763); details: Compound concentration 1000.0 nM
# [15] = target: Serine/threonine-protein kinase 32C (Homo sapiens) (UniProt Q86UX6); details: Compound concentration 1000.0 nM
# [16] = target: Mitogen-activated protein kinase 8 (Homo sapiens) (UniProt P45983); details: Compound concentration 1000.0 nM
# [17] = target: Calcium/calmodulin-dependent protein kinase type 1B (Homo sapiens) (UniProt Q6P2M8); details: Compound concentration 1000.0 nM
# [18] = target: Mitogen-activated protein kinase kinase kinase 9 (Homo sapiens) (UniProt P80192); details: Compound concentration 1000.0 nM
# [19] = system: Receptor-type tyrosine-protein kinase FLT3 (Homo sapiens), P36888 [UNDEFINED MUTATION]; details: Compound concentration 1000.0 nM
# [20] = target: Cyclin-G-associated kinase (Homo sapiens) (UniProt O14976); details: Compound concentration 1000.0 nM
# [21] = target: Serine/threonine-protein kinase BRSK2 (Homo sapiens) (UniProt Q8IWQ3); details: Compound concentration 1000.0 nM
# [22] = target: 5-hydroxytryptamine receptor 2B (Homo sapiens, UniProt P41595); details: Compound concentration 10.0 uM
# [23] = target: Mitotic checkpoint serine/threonine-protein kinase BUB1 (Homo sapiens) (UniProt O43683); details: Compound concentration 1000.0 nM
# [24] = target: Muscarinic acetylcholine receptor M3 (Homo sapiens) (UniProt P20309); details: Compound concentration 10.0 uM
# [25] = system: Tyrosine-protein kinase ABL1 (Homo sapiens), P00519 [F317I]; details: Compound concentration 1000.0 nM
# [26] = target: Serine/threonine-protein kinase TAO3 (Homo sapiens) (UniProt Q9H2K8); details: Compound concentration 1000.0 nM
# [27] = target: Phosphatidylinositol 5-phosphate 4-kinase type-2 beta (Homo sapiens) (UniProt P78356); details: Compound concentration 1000.0 nM
# [28] = target: Muscle, skeletal receptor tyrosine-protein kinase (Homo sapiens) (UniProt O15146); details: Compound concentration 1000.0 nM
# [29] = system: Epidermal growth factor receptor (Homo sapiens), P00533 [L858R,T790M]; details: Compound concentration 1000.0 nM
# [30] = target: Insulin receptor-related protein (Homo sapiens) (UniProt P14616); details: Compound concentration 1000.0 nM
# [31] = system: Epidermal growth factor receptor (Homo sapiens), P00533 [T790M]; details: Compound concentration 1000.0 nM
# [32] = target: Phosphatidylinositol 3-kinase C2 domain-containing subunit gamma (Homo sapiens) (UniProt O75747); details: Compound concentration 1000.0 nM
# [33] = target: Protein kinase C delta type (Homo sapiens) (UniProt Q05655); details: Compound concentration 1000.0 nM
# [34] = target: Tyrosine-protein kinase HCK (Homo sapiens) (UniProt P08631); details: Compound concentration 1000.0 nM
# [35] = target: Serine/threonine-protein kinase 32B (Homo sapiens) (UniProt Q9NY57); details: Compound concentration 1000.0 nM
# [36] = target: Aurora kinase A (Homo sapiens) (UniProt O14965); details: Compound concentration 1000.0 nM
# [37] = system: Tyrosine-protein kinase ABL1 (Homo sapiens), P00519 [T315I]; details: Compound concentration 1000.0 nM
# [38] = target: Tyrosine-protein kinase Blk (Homo sapiens) (UniProt P51451); details: Compound concentration 1000.0 nM
# [39] = target: Serine/threonine-protein kinase 3 (Homo sapiens) (UniProt Q13188); details: Compound concentration 1000.0 nM
# [40] = target: Serine/threonine-protein kinase Sgk1 (Homo sapiens) (UniProt O00141); details: Compound concentration 1000.0 nM
# [41] = target: RAF proto-oncogene serine/threonine-protein kinase (Homo sapiens) (UniProt P04049); details: Compound concentration 1000.0 nM
# [42] = target: Calcium/calmodulin-dependent protein kinase type 1 (Homo sapiens) (UniProt Q14012); details: Compound concentration 1000.0 nM
# [43] = target: Serine/threonine-protein kinase TBK1 (Homo sapiens) (UniProt Q9UHD2); details: Compound concentration 1000.0 nM
# [44] = target: Protein kinase C iota type (Homo sapiens) (UniProt P41743); details: Compound concentration 1000.0 nM
# [45] = target: Calcium/calmodulin-dependent protein kinase type II subunit beta (Homo sapiens) (UniProt Q13554); details: Compound concentration 1000.0 nM
# Chain of Calcium/calmodulin-dependent protein kinase type II subunit beta (Homo sapiens) (Q13554 whole entry): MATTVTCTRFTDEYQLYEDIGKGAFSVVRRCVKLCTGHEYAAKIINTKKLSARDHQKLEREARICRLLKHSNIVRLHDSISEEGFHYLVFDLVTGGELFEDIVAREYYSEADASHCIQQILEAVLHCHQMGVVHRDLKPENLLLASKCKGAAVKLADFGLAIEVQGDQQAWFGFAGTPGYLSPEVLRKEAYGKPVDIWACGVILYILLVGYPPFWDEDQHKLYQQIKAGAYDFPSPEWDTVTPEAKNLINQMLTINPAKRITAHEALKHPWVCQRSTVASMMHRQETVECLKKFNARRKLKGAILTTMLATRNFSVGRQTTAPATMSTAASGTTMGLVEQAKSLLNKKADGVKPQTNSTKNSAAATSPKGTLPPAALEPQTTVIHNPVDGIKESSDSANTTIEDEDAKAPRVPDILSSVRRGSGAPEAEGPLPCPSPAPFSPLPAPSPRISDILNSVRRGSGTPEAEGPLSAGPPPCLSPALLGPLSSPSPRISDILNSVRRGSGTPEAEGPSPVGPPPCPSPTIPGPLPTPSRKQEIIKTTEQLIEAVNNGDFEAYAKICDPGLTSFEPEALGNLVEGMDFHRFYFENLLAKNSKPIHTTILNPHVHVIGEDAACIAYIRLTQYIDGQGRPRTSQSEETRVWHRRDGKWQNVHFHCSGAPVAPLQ
# Chain of Serine/threonine-protein kinase 32B (Homo sapiens) (Q9NY57 whole entry): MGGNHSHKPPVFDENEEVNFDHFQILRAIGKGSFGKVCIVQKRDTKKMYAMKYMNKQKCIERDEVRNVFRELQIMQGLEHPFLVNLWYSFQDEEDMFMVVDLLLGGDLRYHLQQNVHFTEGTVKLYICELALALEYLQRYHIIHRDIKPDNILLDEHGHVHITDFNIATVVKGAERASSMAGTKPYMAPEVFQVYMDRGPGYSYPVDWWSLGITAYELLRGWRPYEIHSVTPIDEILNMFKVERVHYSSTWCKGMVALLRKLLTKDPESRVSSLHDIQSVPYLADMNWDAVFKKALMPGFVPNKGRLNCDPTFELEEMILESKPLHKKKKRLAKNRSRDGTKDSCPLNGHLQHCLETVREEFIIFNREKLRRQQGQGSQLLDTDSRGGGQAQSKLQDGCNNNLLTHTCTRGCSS
# Chain of Phosphatidylinositol 5-phosphate 4-kinase type-2 beta (Homo sapiens) (P78356 whole entry): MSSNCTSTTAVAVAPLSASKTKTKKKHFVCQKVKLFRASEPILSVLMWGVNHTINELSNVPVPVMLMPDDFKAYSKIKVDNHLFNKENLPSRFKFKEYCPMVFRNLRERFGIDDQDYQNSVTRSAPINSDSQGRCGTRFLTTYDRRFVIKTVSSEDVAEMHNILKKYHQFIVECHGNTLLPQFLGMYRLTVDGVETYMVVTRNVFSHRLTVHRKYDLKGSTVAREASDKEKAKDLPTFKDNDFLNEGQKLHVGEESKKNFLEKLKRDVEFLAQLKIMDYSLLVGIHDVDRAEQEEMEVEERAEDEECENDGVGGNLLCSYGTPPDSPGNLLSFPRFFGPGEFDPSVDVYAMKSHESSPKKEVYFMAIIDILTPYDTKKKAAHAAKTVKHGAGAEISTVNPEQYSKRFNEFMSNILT
# Chain of 5'-AMP-activated protein kinase catalytic subunit alpha-1 (Homo sapiens) (Q13131 whole entry, looked up): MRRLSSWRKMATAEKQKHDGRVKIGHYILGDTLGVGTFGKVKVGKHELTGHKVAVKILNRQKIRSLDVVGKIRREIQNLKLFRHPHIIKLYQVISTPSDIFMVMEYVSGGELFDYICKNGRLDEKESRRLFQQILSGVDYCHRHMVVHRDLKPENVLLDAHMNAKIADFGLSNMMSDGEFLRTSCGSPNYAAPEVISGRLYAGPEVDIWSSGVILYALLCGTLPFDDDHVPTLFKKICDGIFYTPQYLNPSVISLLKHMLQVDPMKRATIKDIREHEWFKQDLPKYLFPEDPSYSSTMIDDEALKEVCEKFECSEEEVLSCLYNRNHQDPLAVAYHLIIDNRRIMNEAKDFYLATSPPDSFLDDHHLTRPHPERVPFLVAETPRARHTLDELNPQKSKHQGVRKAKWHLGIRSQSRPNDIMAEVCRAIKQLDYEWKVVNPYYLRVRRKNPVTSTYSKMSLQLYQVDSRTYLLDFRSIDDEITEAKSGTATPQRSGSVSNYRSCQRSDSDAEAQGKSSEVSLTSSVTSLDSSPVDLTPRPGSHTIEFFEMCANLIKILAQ
# Chain of 5-hydroxytryptamine receptor 1D (Homo sapiens) (P28221 whole entry): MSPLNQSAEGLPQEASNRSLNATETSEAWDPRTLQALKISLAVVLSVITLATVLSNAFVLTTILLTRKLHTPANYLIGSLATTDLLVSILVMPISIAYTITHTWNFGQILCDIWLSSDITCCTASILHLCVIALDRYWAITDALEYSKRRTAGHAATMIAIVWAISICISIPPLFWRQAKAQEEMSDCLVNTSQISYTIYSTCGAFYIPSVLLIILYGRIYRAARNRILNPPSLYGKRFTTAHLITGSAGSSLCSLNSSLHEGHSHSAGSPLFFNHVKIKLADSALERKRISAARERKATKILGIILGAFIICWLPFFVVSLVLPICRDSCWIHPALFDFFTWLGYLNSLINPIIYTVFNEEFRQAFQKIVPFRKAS
# Chain of Serine/threonine-protein kinase BRSK2 (Homo sapiens) (Q8IWQ3 whole entry): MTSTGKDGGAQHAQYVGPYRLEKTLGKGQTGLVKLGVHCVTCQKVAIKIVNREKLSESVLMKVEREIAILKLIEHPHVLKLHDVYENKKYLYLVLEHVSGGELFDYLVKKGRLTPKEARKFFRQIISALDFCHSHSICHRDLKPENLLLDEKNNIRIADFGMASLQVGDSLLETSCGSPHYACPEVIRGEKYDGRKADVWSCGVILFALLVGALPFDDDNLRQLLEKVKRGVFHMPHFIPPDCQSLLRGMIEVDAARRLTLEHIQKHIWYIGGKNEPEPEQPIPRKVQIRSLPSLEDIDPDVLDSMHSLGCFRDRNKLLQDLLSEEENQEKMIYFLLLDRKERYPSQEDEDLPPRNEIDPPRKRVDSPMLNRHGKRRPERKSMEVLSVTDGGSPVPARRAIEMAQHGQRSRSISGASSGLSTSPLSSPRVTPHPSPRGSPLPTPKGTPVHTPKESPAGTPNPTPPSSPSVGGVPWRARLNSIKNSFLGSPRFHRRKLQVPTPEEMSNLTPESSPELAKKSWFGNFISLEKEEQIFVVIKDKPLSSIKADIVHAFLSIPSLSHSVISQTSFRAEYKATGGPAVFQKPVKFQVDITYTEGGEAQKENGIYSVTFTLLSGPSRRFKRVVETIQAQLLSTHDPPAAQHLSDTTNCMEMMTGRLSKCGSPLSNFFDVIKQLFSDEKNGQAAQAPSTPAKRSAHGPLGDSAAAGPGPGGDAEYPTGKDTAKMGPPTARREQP
# Chain of Serine/threonine-protein kinase 32C (Homo sapiens) (Q86UX6 whole entry): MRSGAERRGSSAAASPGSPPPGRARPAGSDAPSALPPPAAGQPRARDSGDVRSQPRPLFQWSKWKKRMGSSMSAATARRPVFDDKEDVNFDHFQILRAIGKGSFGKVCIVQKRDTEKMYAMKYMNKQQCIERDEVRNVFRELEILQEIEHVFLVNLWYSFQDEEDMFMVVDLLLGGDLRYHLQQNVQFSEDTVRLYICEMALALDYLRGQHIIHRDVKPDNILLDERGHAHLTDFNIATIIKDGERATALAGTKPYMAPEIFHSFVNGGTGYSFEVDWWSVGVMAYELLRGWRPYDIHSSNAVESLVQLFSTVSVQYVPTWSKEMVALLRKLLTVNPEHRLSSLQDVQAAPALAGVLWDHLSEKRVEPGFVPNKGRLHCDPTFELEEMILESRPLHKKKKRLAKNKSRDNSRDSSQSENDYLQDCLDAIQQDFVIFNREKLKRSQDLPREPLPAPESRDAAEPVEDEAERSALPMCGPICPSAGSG
# Chain of Serine/threonine-protein kinase Sgk1 (Homo sapiens) (O00141 whole entry): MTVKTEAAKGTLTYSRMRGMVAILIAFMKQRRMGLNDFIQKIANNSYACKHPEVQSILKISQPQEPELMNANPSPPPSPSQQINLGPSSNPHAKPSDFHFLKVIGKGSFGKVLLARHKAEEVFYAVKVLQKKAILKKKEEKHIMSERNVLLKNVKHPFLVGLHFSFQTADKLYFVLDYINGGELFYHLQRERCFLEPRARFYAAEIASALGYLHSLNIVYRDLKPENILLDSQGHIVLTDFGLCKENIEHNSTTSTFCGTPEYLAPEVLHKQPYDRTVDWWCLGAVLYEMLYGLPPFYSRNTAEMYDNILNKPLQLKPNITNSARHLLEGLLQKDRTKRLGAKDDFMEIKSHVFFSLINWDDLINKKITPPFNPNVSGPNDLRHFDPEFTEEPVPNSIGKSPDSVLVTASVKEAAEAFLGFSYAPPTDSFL
# Chain of RAC-beta serine/threonine-protein kinase (Homo sapiens) (P31751 whole entry): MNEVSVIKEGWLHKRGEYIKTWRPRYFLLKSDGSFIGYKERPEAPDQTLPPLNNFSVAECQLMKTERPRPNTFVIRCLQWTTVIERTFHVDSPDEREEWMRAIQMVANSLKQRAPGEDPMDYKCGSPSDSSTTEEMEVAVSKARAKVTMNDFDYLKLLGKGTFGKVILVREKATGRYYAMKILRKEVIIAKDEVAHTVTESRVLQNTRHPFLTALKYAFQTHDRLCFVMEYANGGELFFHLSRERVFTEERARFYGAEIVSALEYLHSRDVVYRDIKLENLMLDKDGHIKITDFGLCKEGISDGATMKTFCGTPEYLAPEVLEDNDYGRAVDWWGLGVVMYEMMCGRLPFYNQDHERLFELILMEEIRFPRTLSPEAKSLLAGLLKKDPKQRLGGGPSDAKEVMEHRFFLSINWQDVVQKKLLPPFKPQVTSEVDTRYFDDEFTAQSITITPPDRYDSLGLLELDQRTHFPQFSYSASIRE
# Chain of Serine/threonine-protein kinase pim-2 (Homo sapiens) (Q9P1W9 whole entry, looked up): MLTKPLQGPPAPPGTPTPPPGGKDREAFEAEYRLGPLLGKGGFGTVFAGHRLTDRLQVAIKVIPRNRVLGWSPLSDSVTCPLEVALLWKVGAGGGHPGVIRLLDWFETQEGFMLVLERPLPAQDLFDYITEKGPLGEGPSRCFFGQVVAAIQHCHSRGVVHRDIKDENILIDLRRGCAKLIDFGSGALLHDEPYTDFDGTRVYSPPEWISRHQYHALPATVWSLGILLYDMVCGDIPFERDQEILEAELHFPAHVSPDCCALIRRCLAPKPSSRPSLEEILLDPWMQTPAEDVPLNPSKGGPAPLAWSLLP
structure (smiles),measurement,setting,value
O=C(Nc1cccnn1)N1CCC(=Cc2cccc(Oc3ccc(C(F)(F)F)cn3)c2)CC1,inhibition,[1],42.1%
same,residual activity,[2],97%
same,residual activity,[3],100%
same,residual activity,[4],81%
same,residual activity,[5],81%
same,residual activity,[6],96%
same,residual activity,[7],99%
same,residual activity,[8],86%
same,residual activity,[9],86%
same,residual activity,[10],65%
same,residual activity,[11],88%
same,residual activity,[12],100%
same,residual activity,[13],100%
same,residual activity,[14],94%
same,residual activity,[15],100%
same,residual activity,[16],100%
same,residual activity,[17],100%
same,residual activity,[18],100%
same,residual activity,[19],94%
same,residual activity,[20],100%
same,residual activity,[21],90%
same,inhibition,[22],55.7%
same,residual activity,[23],100%
same,inhibition,[24],27.5%
same,residual activity,[25],100%
same,residual activity,[26],42%
same,residual activity,[27],83%
same,residual activity,[28],100%
same,residual activity,[29],99%
same,residual activity,[30],100%
same,residual activity,[31],100%
same,residual activity,[32],95%
same,residual activity,[33],93%
same,residual activity,[34],98%
same,residual activity,[35],82%
same,residual activity,[36],100%
same,residual activity,[37],100%
same,residual activity,[38],100%
same,residual activity,[39],100%
same,residual activity,[40],100%
same,residual activity,[41],63%
same,residual activity,[42],100%
same,residual activity,[43],100%
same,residual activity,[44],81%
same,residual activity,[45],89%
O=C(Nc1cccnn1)N1CC(C/C=C/c2cncc(Oc3ccc(C(F)(F)F)cn3)n2)C1,inhibition,[1],-2.98%
same,residual activity,[2],100%
same,residual activity,[3],84%
same,residual activity,[4],80%
same,residual activity,[5],100%
same,residual activity,[6],94%
same,residual activity,[7],81%
same,residual activity,[8],93%
same,residual activity,[9],100%
same,residual activity,[10],100%
same,residual activity,[11],100%
same,residual activity,[12],92%
same,residual activity,[13],100%
same,residual activity,[14],84%
same,residual activity,[15],100%
same,residual activity,[16],75%
same,residual activity,[17],63%
same,residual activity,[18],100%
same,residual activity,[19],68%
same,residual activity,[20],100%
same,residual activity,[21],100%
same,inhibition,[22],2.28%
same,residual activity,[23],1.4%
same,inhibition,[24],0.26%
same,residual activity,[25],53%
same,residual activity,[26],82%
same,residual activity,[27],96%
same,residual activity,[28],97%
same,residual activity,[29],82%
same,residual activity,[30],100%
same,residual activity,[31],100%
same,residual activity,[32],100%
same,residual activity,[33],100%
same,residual activity,[34],100%
same,residual activity,[35],100%
same,residual activity,[36],100%
same,residual activity,[37],60%
same,residual activity,[38],65%
same,residual activity,[39],80%
same,residual activity,[40],85%
same,residual activity,[41],100%
same,residual activity,[42],100%
same,residual activity,[43],72%
same,residual activity,[44],96%
same,residual activity,[45],100%
